Source: patent US10688111B2, “Liquid formulations of compounds active at sulfonylurea receptors” (Biogen Chesapeake LLC, priority 2008, dated 2020)

What was measured:
Format in all cases: physicochemical
[1] = Glibenclamide solubility in infusion fluids by HPLC, excess drug shaken 24 hours (Table 4); details: saline or isotonic, thermodynamic from solid, pH 9.0 (50-fold dilution), 24 hours ambient
Experimental: The solubility of glibenclamide was determined by high pressure liquid chromatography (HPLC) in a variety of infusion fluids. Excess glibenclamide was shaken with the vehicle for 24 hours at ambient temperature and the glibenclamide content of the supernatant determined by HPLC.
The following infusion vehicles were assessed in these experiments:
1.) 0.9% NaCl at the lowest end of the pH specification (pH 4.5) containing a 50-fold dilution of the PEG/ethanol/meglumine 10 mM pH 9.0 formulation.
2.) 0.9% NaCl at the lowest end of the pH specification (pH 4.5) containing a 50-fold dilution of the PEG/ethanol/diethanolamine 10 mM pH 9.0 formulation.
3.) 0.9% NaCl at the lowest end of the pH specification (pH 4.5) containing a 50-fold dilution of the PEG/ethanol/TRIS 10 mM pH 9.0 formulation.
4.) 0.9% NaCl at the lowest end of the pH specification (pH 4.5).
5.) 0.9% NaCl at the highest end of the pH specification (pH 7.0).
6.) 0.9% NaCl ‘as is’ (pH 5.8).
7.) 0.9% NaCl at the lowest end of the pH specification (pH 4.5) containing a 50-fold dilution of the PEG/ethanol formulation (without buffer or pH adjustment).
8.) 0.9% NaCl at the highest end of the pH specification (pH 7.0) containing a 50-fold dilution of the PEG/ethanol formulation (without buffer or pH adjustment).

[2] = pH after 50-fold dilution of glibenclamide 1 mg/ml concentrate into Hartmann's or NaCl; details: 1 mg/ml in PEG/Ethanol/Buffer (4/1/5)
Experimental: This was found even for experiments in which the concentration of buffer was reduced to 5 mM. In order to determine the final pH of diluted solutions resulting from high pH solutions having high concentrations of SUR-active compounds, measurements of the pH of glibenclamide solutions at various levels of dilution were made. […]

[3] = Precipitation on dilution of concentrated glibenclamide solutions
Experimental: This formulation may also include a buffer, such as meglumine or diethanolamine. This formulation may also include a surfactant; for example, this solution may include Tween 80 (e.g., less than about 1 ug/ml or less than about 1 ug/mg of glibenclamide). This formulation can be stored in a refrigerator (e.g., at about 2-8° C.) or can be stored at room temperature. This formulation is suitable for dilution; for example, it may be diluted 1:1, or 1:2 for use in bolus injections. This formulation may also be diluted by larger amounts of diluent, to 1:50 for example, for administration of glibenclamide as an infusion over an extended period of time. Dilution with a buffered solution allows the reduction of the solution pH to physiological levels without causing precipitation of glibenclamide. […] Experiments investigating the effect of dilution of relatively high concentrations of SUR-active compounds were performed. […] These solutions were diluted as follows with each of these diluents (0.9% NaCl and 5% glucose solutions): 1 in 2; 1 in 4; 1 in 5; 1 in 10; 1 in 20; and 1 in 50.

COc1ccc(Cl)cc1C(=O)NCCc1ccc(S(=O)(=O)NC(=O)NC2CCCCC2)cc1 [Glibenclamide, N-p-(2-[5-Chloro-2-methoxybenzamido]ethyl) benzenesulfonyl-N′-cyclohexylurea]
solubility at 24 h ([1]; NaCl at pH 4.5 + PEG/EtOH/Meglumine 10 mM, actual pH 7.92): 150 µg/mL
solubility at 24 h ([1]; NaCl at pH 4.5 + PEG/EtOH/TRIS 10 mM, actual pH 7.89): 150 µg/mL
pH after a 50-fold Dilution ([2]; Diethanolamine 5 mM pH 8, into Hartmann's pH 6.48 (Expt1)): 6.71
pH after a 50-fold Dilution ([2]; Diethanolamine 5 mM pH 8, into Hartmann's pH 6.60): 7.99
pH after a 50-fold Dilution ([2]; Diethanolamine 5 mM pH 8, into NaCl pH 4.59): 7.27
pH after a 50-fold Dilution ([2]; Diethanolamine 5 mM pH 8, into NaCl pH 6.82): 8.32
pH after a 50-fold Dilution ([2]; Diethanolamine 5 mM pH 8.5, into Hartmann's pH 6.48, Expt 2): 6.82
pH after a 50-fold Dilution ([2]; Diethanolamine 5 mM pH 9, into Hartmann's pH 6.48 (Expt1)): 7.54
pH after a 50-fold Dilution ([2]; Diethanolamine 5 mM pH 9, into Hartmann's pH 6.48, Expt 2): 7.29
pH after a 50-fold Dilution ([2]; Diethanolamine 5 mM pH 9, into NaCl pH 6.82): 8.65
pH after a 50-fold Dilution ([2]; Diethanolamine 5 mM pH 9.5, into Hartmann's pH 6.48 (Expt1)): 6.73
pH after a 50-fold Dilution ([2]; Diethanolamine 5 mM pH 9.5, into Hartmann's pH 6.48, Expt 2): 8.37
pH after a 50-fold Dilution ([2]; Diethanolamine 5 mM pH 9.5, into Hartmann's pH 6.60): 8.85
pH after a 50-fold Dilution ([2]; Diethanolamine 5 mM pH 9.5, into NaCl pH 4.59): 8.72
pH after a 50-fold Dilution ([2]; Diethanolamine 5 mM pH 9.5, into NaCl pH 6.82): 8.88
pH after a 50-fold Dilution ([2]; Diethanolamine 5 mM pH 10, into Hartmann's pH 6.48): 8.46
pH after a 50-fold Dilution ([2]; Diethanolamine 10 mM pH 9, into Hartmann's pH 6.48): 8.38
pH after a 50-fold Dilution ([2]; Diethanolamine 10 mM pH 9, into NaCl pH 4.59): 8.46
pH after a 50-fold Dilution ([2]; Diethanolamine 10 mM pH 10, into Hartmann's pH 6.48): 8.88
pH after a 50-fold Dilution ([2]; Diethanolamine 10 mM pH 10, into NaCl pH 6.82): 9.31
pH after a 50-fold Dilution ([2]; Meglumine 5 mM pH 8, into Hartmann's pH 6.48 (Expt1)): 6.66
pH after a 50-fold Dilution ([2]; Meglumine 5 mM pH 8, into Hartmann's pH 6.60): 6.55
pH after a 50-fold Dilution ([2]; Meglumine 5 mM pH 8, into NaCl pH 4.59): 6.56
pH after a 50-fold Dilution ([2]; Meglumine 5 mM pH 8, into NaCl pH 6.82): 8.21
pH after a 50-fold Dilution ([2]; Meglumine 5 mM pH 8.5, into Hartmann's pH 6.48, Expt 2): 6.64
pH after a 50-fold Dilution ([2]; Meglumine 5 mM pH 9, into Hartmann's pH 6.48 (Expt1)): 6.8
pH after a 50-fold Dilution ([2]; Meglumine 5 mM pH 9, into Hartmann's pH 6.48, Expt 2): 6.96
pH after a 50-fold Dilution ([2]; Meglumine 5 mM pH 9, into NaCl pH 6.82): 8.40
pH after a 50-fold Dilution ([2]; Meglumine 5 mM pH 9.5, into Hartmann's pH 6.48 (Expt1)): 6.93
pH after a 50-fold Dilution ([2]; Meglumine 5 mM pH 9.5, into Hartmann's pH 6.48, Expt 2): 7.68
pH after a 50-fold Dilution ([2]; Meglumine 5 mM pH 9.5, into Hartmann's pH 6.60): 8.49
pH after a 50-fold Dilution ([2]; Meglumine 5 mM pH 9.5, into NaCl pH 4.59): 8.04
pH after a 50-fold Dilution ([2]; Meglumine 5 mM pH 9.5, into NaCl pH 6.82): 8.71
pH after a 50-fold Dilution ([2]; Meglumine 5 mM pH 10, into Hartmann's pH 6.48): 8.32
pH after a 50-fold Dilution ([2]; Meglumine 10 mM pH 9, into Hartmann's pH 6.48): 7.37
pH after a 50-fold Dilution ([2]; Meglumine 10 mM pH 9, into NaCl pH 4.59): 6.35
pH after a 50-fold Dilution ([2]; Meglumine 10 mM pH 10, into Hartmann's pH 6.48): 8.98
pH after a 50-fold Dilution ([2]; Meglumine 10 mM pH 10, into NaCl pH 6.82): 9.54
precipitation on dilution ([3]; 2 mg/ml in 100 mM meglumine buffer with 0.9% NaCl or 5% glucose, diluted 1 in 2, 4, 5, 10, 20 and 50 with these diluents): no precipitation
behaviour of drug during and following dilution ([3]; Example 1 formulation (40% PEG 300, 10% Ethanol, 50% water, about pH 9, 1 mg/ml) diluted 1:50 with Hartman's solution): remained in solution
